Read-outs that look alike come from different tables or passages of the source.
Legend:
in vivo = settings: po, mouse, preliminary, read-out: Toxicity (LD50)
KB-8-5 cells [1] = test: resistance modification index (RMI) test with vincristine in multidrug-resistant cells (formazan colorimetric measurement); assay type: cell-based, human; settings: RMI at 0.1·IC50 of the substance; RMI = IC50 vincristine without / with test substance; n = 2 (A-E) or 4 (verapamil)
From the text: The modifying activity of multiple resistance to cytostatics of the compounds of formula I, of rac-N-(3,4-dimethoxyphenethyl)-2-(3,4-dimethoxyphenyl)-β,N-dimethyl-m-dithiane-2-propanamine and of usual reference substances was investigated as follows:
(§1) KB-8-5 cells, a human cell line with multiple resistance to cytostatics, and KB-3-1 cells, a correspondingly sensitive cell line [Cell. Mol. Genet. 11, 117-126, (1985) and Science 232, 643-645, (1986)], were cultivated in suitable media [Cancer Res. 94, 267-275, (1984), Exp. Hematol. 12, 559-567, (1984), Eliason, Ramuz & Kaufmann in Int. J. Cancer 46, 113-117, (1990)].
(§2) The testing and the determination of cytotoxicity are based on the ability of living cells to reduce 3-(4,5-dimethylthiazol-2-yl)-2,5-diphenyltetrazolium bromide to the corresponding blue formazan (colorimetric measurement) [J. Immunol. Methods 65, 55-63, (1985)]. The cells were incubated for 2 days in separate containers. The compounds selected for the biological investigation were added to the cell cultures in such a manner that the serial concentrations 10^-8 M, 10^-7 M, 10^-6 M, 10^-5 M and 10^-4 M were achieved. Vincristine in 4 dilution series (3·10^-9 M, 10^-8 M, 3·10^-8 M and 10^-7 M for KB-8-5 cells and 30 times less for the KB-3-1 cells) was added thereto. After incubating for 5 days the cell count was measured at 540 nm using the formazan color reaction. The evaluation was carried out by calculating a resistance modification index, RMI, which is the ratio between the IC50 value of vincristine in the absence of a test substance and the IC50 value of vincristine in the presence of a test substance. [formula]
(RMI0.1 ≡RMI at 0.1·IC50 of the substance).

KB-8-5 cells [2] = test: cytotoxicity (IC50) of the test substance, MTT/formazan color reaction; assay type: cell-based; settings: Homo sapiens, 120 h
From the text: as §1
as §2, with “The biological test is based on the ability of the test substance to lower the concentration of a standard cytostatic which is required to kill 50% of the cells. The testing” for “The testing”
In order to compare all activities of compounds from different classes, a RMI0.1 is defined: this is the RMI value of a substance which is obtained with the ten-fold lower concentration than the IC50 value. (RMI0.1 ≡RMI at 0.1·IC50 of the substance). […] The preliminary toxicological data (LD50, mouse) after oral administration of the test compound are also given.

[3] = test system: multiple resistance to cytostatics (multidrug resistance); settings: literature; cited from earlier work
[4] = background statement, no test given; cited from earlier work
[5] = test system: multiple resistance to cytostatics (multidrug resistance); test: elimination of multiple resistance to cytostatics (literature and background statements); settings: compared with compounds of formula I

COc1ccc(CCN(C)CC(C)CC2(c3ccc(Cl)cc3)SCCCS2)cc1OC.Cl (racemic) [A, rac-2-(4-Chlorophenyl)-N-(3,4-dimethoxyphenethyl)-β,N-dimethyl-m-dithiane-2-propanamine hydrochloride]
LD50 (in vivo): 1250 to 2500 mg/kg | Vincristine RMI0.1 (KB-8-5 cells [1]): 216 | IC50 (KB-8-5 cells [2]; read-out: IC50): 14 µM

COc1ccc(CCN(C)CC(C)CC2(c3ccc(C)cc3)SCCCS2)cc1OC.Cl (racemic) [B, rac-N-(3,4-dimethoxyphenethyl)-β,N-dimethyl-2-(4-tolyl)-m-dithiane-2-propanamine hydrochloride]
LD50 (in vivo): 625 to 1250 mg/kg | Vincristine RMI0.1 (KB-8-5 cells [1]): 159 | IC50 (KB-8-5 cells [2]; read-out: IC50): 14 µM

COc1ccc(C2(CN(C)CC(C)CC3(c4cc(OC)c(OC)c(OC)c4)SCCCS3)CCC2)cc1OC.Cl (racemic) [C, rac-N-[[1-(3,4-dimethoxyphenyl)cyclobutyl]methyl]-β,N-dimethyl-2-(3,4,5-trimethoxyphenyl)-m-dithiane-2-propanamine hydrochloride]
LD50 (in vivo): 1000 to 2000 mg/kg | Vincristine RMI0.1 (KB-8-5 cells [1]): 224 | IC50 (KB-8-5 cells [2]; read-out: IC50): 21 µM

COc1ccc(C2(CN(C)CC(C)CC3(c4ccc(OC)c(OC)c4)SCCCS3)CCC2)cc1OC.Cl (racemic) [D, rac-2-(3,4-dimethoxyphenyl)-N-[[1-(3,4-dimethoxyphenyl)cyclobutyl]methyl]-β,N-dimethyl-m-dithiane-2-propanamine hydrochloride]
LD50 (in vivo): 1000 to 2000 mg/kg | Vincristine RMI0.1 (KB-8-5 cells [1]): 163 | IC50 (KB-8-5 cells [2]; read-out: IC50): 21 µM

COc1ccc(C2(CC(C)CN(C)CCc3ccc(Cl)cc3)SCCCS2)cc1OC.Cl (racemic) [E, rac-N-(4-chlorophenethyl)-2-(3,4-dimethoxyphenyl)-β,N-dimethyl-m-dithiane-2-propanamine hydrochloride]
LD50 (in vivo): 2500 to 5000 mg/kg | Vincristine RMI0.1 (KB-8-5 cells [1]): 24 | IC50 (KB-8-5 cells [2]; read-out: IC50): 7.7 µM

COc1ccc(CCN(C)CCCC2(c3ccc4ccccc4c3)SCCCS2)cc1OC (racemic) [rac-N-(3,4-dimethoxyphenethyl)-N-methyl-2-(2-naphthyl)-m-dithiane-2-propanamine]
activity in eliminating multiple resistance [3]: certain activity in partially or completely eliminating multiple resistance | toxicity [4]: relatively toxic | activity vis-a-vis the novel compounds of formula I [5]: clearly lower activity

COc1ccc(CCN(C)CCC[C@](C#N)(c2ccc(OC)c(OC)c2)C(C)C)cc1OC [(+)Verapamil, reference compound]
Vincristine RMI0.1 (KB-8-5 cells [1]): 12 | IC50 (KB-8-5 cells [2]): 62 µM

COc1ccc(CCN(C)CCC[C@@](C#N)(c2ccc(OC)c(OC)c2)C(C)C)cc1OC [(-)Verapamil, reference compound]
Vincristine RMI0.1 (KB-8-5 cells [1]): 47 | IC50 (KB-8-5 cells [2]): 72 µM

C=C[C@H]1C[N@@]2CC[C@H]1C[C@@H]2[C@@H](O)c1ccnc2ccc(OC)cc12 [quinidine]
activity in eliminating multiple resistance [3]: certain activity in partially or completely eliminating multiple resistance

CN1CCN(CCCN2c3ccccc3Sc3ccc(C(F)(F)F)cc32)CC1 [trifluoperazine]
activity in eliminating multiple resistance [3]: certain activity in partially or completely eliminating multiple resistance

COc1ccc(CCN(C)CCCC(C#N)(c2ccc(OC)c(OC)c2)C(C)C)cc1OC (stereo not shown) [verapamil]
activity in eliminating multiple resistance [3]: certain activity in partially or completely eliminating multiple resistance
